Assay results published in US11518742B2 (priority 2020, dated 2022).

Columns and labels:
male Sprague-Dawley rats = assay: Functional Observational Battery (FOB), single intranasal administration (ITR study 15951); type: in vivo, rat
Description: The test and control/vehicle items were administered by single dose intranasal administration to both nostrils, as shown in Table 7.
Parameters monitored included mortality and clinical signs. General behavioral changes were assessed using FOB at 6 timepoints: before dosing, and at 15 minutes, 1, 2, 4, and 24 hours postdosing. On each occasion, the FOB was performed at 4 stages: when the animals were in their home cage, while handling the animals, when the animals were freely moving in an open-field, and when they received diverse stimuli for reactivity evaluation. The body temperature and neuromuscular strength were also measured on each of the occasions detailed above.

[1] = Maximum tolerated dose followed by 7-day repeat-dose toxicology in dogs (Study 62958); type: in vivo, dog; details: both sexes, dog, in vivo, inhaled or intranasal; intranasal instillation
Description: (§1) In support of these objectives, the study consisted of 2 individual phases.
(§2) The test item was administered once by intranasal instillation to one male and female dog for up to 5 dose levels until the highest tolerable dose (MTD) was determined as described in Table 11.
(§3) During Phase 2, assessments of mortality, clinical signs, body weights and food consumption were performed. […] Following the last dosing, all animals were euthanized and subjected to a necropsy examination on Day 8. The necropsy consisted of an external examination; including reference to all clinically-recorded lesions, as well as a detailed internal examination. Study plan specific tissues/organs were collected and preserved following necropsy but were not further examined microscopically.

dogs = assay: as above; type: in vivo, dog
Description: as §1, §2, §3

[2] = Toxicokinetics in dog MTD study (Study 62958); type: in vivo
Description: as §3
There were no sex differences in any of the measured toxicokinetic parameters on either occasion.

[3] = 14-day repeat-dose intranasal toxicity study with 14-day recovery in rats (Study 700041); type: in vivo, rat; details: both sexes, Sprague Dawley, in vivo, inhaled or intranasal; 14-day intranasal, rat
Description: (§4) The animals were monitored for mortality, clinical signs, respiratory measurements, body weights, food consumption, and body temperature. Ophthalmoscopic examinations and respiratory function tests were performed on all animals at scheduled timepoints. Clinical pathology assessments (hematology, coagulation, clinical chemistry, and urinalysis) were evaluated at termination. […] Following dosing, the Main animals were euthanized and subjected to a complete necropsy examination on Day 15. […] TK animals were euthanized after the last blood collection and discarded without further examination. At terminal euthanasia, selected tissues/organs were weighed, and microscopic evaluations of a standard set of tissues including the nasal turbinates (4 sections) and brain (7 sections) were performed for all Main and Recovery study animals.
(§5) Following dosing, animals in the Main group were euthanized and subjected to a necropsy examination on Day 15. […] For toxicokinetics, a series of 8 blood samples (approximately 0.5 mL each) were collected from all rats in the Toxicokinetic group (3 rats/sex/timepoint) on Days 1 and 14 of the treatment period at 2, 5, 10, 15 and 30 minutes, and 1.0, 3.0 and 8 hours after treatment. For control rats (3 rats/sex) in the Toxicokinetic group only 1 sample was collected at the 15 minutes post dosing timepoint on Days 1 and 14.
(§6) Toxicity was based on the following parameters monitored: mortality/morbidity, clinical observations, body weights/gains, food consumption, ophthalmoscopy, clinical pathology (hematology, coagulation, chemistry, and urinalysis), necropsy observations, selected organ weights, and microscopic examination of a complete set of standard tissues including 4 cross levels of the nasal cavity and 7 sections of the brain.

Sprague Dawley rats = assay: as above; type: in vivo, rat; details: for Thymus Mean Absolute Weight, percentage compared to the control value: males; for Clinical signs: male and female
Description: as §4, §5, §6

[4] = 14-day repeat-dose intranasal toxicity study with 14-day recovery in dogs (Study 62959); type: in vivo, dog; details: both sexes, Beagle, dog, in vivo, inhaled or intranasal; 14 consecutive days intranasal, 14-day recovery
Description: (§7) Assessments of mortality, clinical signs, olfactory reflex, body weights, food consumption, ophthalmology, and electrocardiograms were performed. In addition, clinical pathology assessments (hematology, coagulation, clinical chemistry and urinalysis) were evaluated once pretreatment and at termination. Blood samples were collected from the jugular vein of all animals on Days 1 and 14, at up to 8 time points relative to treatment, for analysis of test item concentration in plasma and the subsequent calculation of toxicokinetic parameters. Following dosing, the Main animals were euthanized and subjected to a complete necropsy examination on Day 15. […] All Main and Recovery study animals underwent complete necropsy examinations, selected tissues/organs were retained, and microscopic evaluations of a standard set of tissues were performed.

Beagle dogs = assay: as above; type: in vivo, dog
Description: as §7

[5] = Summary of clinical observations in applicant-sponsored dog studies; type: in vivo; details: beagle, in vivo, other: intranasal instillation; Dog; HED 50 mg; read-out: NOAEL determined in the 14-day toxicology studies
Text: Based on preliminary data from another ongoing study in dogs, it has been observed that the site of blood sampling in dogs may impact the measured plasma exposure. Samples from the jugular vein may result in higher apparent exposure levels than samples from the cephalic vein, which might be due to the local transmucosal route of administration (also reported in the scientific literature (Illum, 2003; Sohlberg, 2013)). Therefore, dose escalation criteria for the Phase 1 Single Ascending Dose study are based on assessment of clinical criteria, safety factors and exposure. A maximum dose of 14 mg has been designated.

[6] = tested on: Chinese hamster ovary (CHO)-K1 cells; assay: In vitro micronucleus test (flow cytometry); type: cell-based
Text: The treatment with the vehicle/negative and positive controls was concurrently performed.

[7] = tested on: Escherichia coli tester strain WP2uvrA; assay: Bacterial Reverse Mutation Test (Ames test), Escherichia coli
[8] = tested on: Salmonella typhimurium tester strains; assay: Bacterial Reverse Mutation Test (Ames test), Salmonella typhimurium

COc1ccc2[nH]cc(CCN(C)C)c2c1 [BPL-5MEO, 5-methoxy-N,N-dimethyltryptamine]
Clinical sign in one animal (male Sprague-Dawley rats; 10 mg/kg): twitching
Resolution of clinical signs and FOB changes (male Sprague-Dawley rats; 1.5, 3, and 10 mg/kg): fully resolved within 1 or 2 hours following dosing
Clinical signs in some animals (male Sprague-Dawley rats; 3 and 10 mg/kg doses): Tremors, salivation, and gasping
FOB behavioral domain (male Sprague-Dawley rats; 15 minutes postdose, comparable to control at 1-hour postdose): transient decreased activity, lying on the cage floor, and decreased rearing
Clinical signs immediately following dosing (male Sprague-Dawley rats; all dose groups, transient): decreased activity, lying on the cage floor, shallow/increased respiration and dilated pupils
FOB neurological (sensorimotor)/neuromuscular domain (male Sprague-Dawley rats; all dose levels, comparable to control at 1-hour postdose): transient changes in gait (difficulty in movement)
FOB autonomic domain (male Sprague-Dawley rats; all dose levels, comparable with control at 2 hours postdose): salivation, piloerection, increased respiration, dilated pupils and changes in body temperature
MTD [1]: 2.5 mg/kg
Mortality and bodyweights (dogs; dose escalation phase, 2 to 5 mg/kg): no BPL-5MEO-related effects on mortality or bodyweights
Duration of convulsion in the male animal (dogs; last escalating dose 3.5 mg/kg/day): 8 min
Accumulation over the 7-day treatment period ([2]; daily intranasal instillation): did not accumulate
Tmax ([2]; dog, plasma, inhaled or intranasal, dogs, Days 1 and 7, both sexes): 2 to 15 min
NOAEL at 14 days [3]: 5 mg/kg
Effect on reproductive tissues (Sprague Dawley rats; 14-day pivotal GLP intranasal toxicity study, rats): no evidence of an adverse effect on reproductive tissues
Respiratory rates (Sprague Dawley rats; 20 minutes post dose): Decreases in respiratory rates
Thymus Mean Absolute Weight, percentage compared to the control value (Sprague Dawley rats; Group 2 (5 mg/kg/day)): −4%
Clinical signs (Sprague Dawley rats; Group 2 (Low Dose) 5 mg/kg/day): incoordination, shaking, salivation, decreased activity, lying on cage floor and sensitive to touch
Thymus Mean Absolute Weight, percentage compared to the control value (Sprague Dawley rats; Group 3 (20 mg/kg/day)): 18%
Clinical signs (Sprague Dawley rats; Group 3 (Mid Dose) 20 mg/kg/day): incoordination, shaking (or tremor), increased or shallow respiration, mydriasis, salivation, decreased activity, partially closed eyes, lying on cage floor and sensitive to touch
Thymus Mean Absolute Weight, percentage compared to the control value (Sprague Dawley rats; Group 4 (75 mg/kg/day)): −31%
Clinical signs (Sprague Dawley rats; Group 4 (High Dose) 75 mg/kg/day): incoordination, shaking (or tremor), increased or shallow respiration, mydriasis, salivation, decreased activity, partially closed eyes, lying on cage floor and sensitive to touch
Microscopic findings, epithelium of nasal cavities 1-4 (Sprague Dawley rats; Main animals, proportional to dose, greater in males): minimal to mild changes
Reversibility of nasal microscopic findings (Sprague Dawley rats; after 14-day recovery period): incomplete but progressive ongoing reversal of epithelial degeneration
Body temperature (Sprague Dawley rats; both sexes): Slight dose dependent body temperature increases
Body weight gain (Sprague Dawley rats; both sexes, Days 1 to 14): Slight dose-dependent body weight gain suppression
Ocular effect (Sprague Dawley rats; dose levels 75 mg/kg/day for 14 days): no adverse ocular effect
Activated partial thromboplastin time (APTT) (Sprague Dawley rats; mid (20 mg/kg/day) and high (75 mg/kg/day) dose groups, both sexes): APTT were increased
Hematology (Sprague Dawley rats; mid and high dose groups, both sexes): Platelet, neutrophil, monocyte and basophil counts were slightly increased
Overall tolerability (Sprague Dawley rats; ≤75 mg/kg/day for 14 consecutive days): tolerated with no BPL-5MEO-related effects on mortality, ophthalmology, clinical chemistry, macroscopic findings and urinalysis
NOAEL at 14 days [4]: 1.5 mg/kg/day
Effect on reproductive tissues (Beagle dogs; 14-day pivotal GLP intranasal toxicity study, dogs): no evidence of an adverse effect on reproductive tissues
Triglyceride (mmol/L), Mean ± SD Day 14 (Beagle dogs; Group 2, 0.4 mg/kg/day, Females): 0.46 ± 0.61 mmol/L
Triglyceride (mmol/L), Mean ± SD Day 14 (Beagle dogs; Group 2, 0.4 mg/kg/day, Males): 0.40 ± 0.11 mmol/L
Triglyceride (mmol/L), Mean ± SD Day 14 (Beagle dogs; Group 3, 0.8 mg/kg/day, Females): 0.47 ± 0.22 mmol/L
Triglyceride (mmol/L), Mean ± SD Day 14 (Beagle dogs; Group 3, 0.8 mg/kg/day, Males): 0.44 ± 0.07 mmol/L
Time to resolution of clinical signs (Beagle dogs; all treated groups): ≤ 90 min
Transient clinical observations (Beagle dogs; animals in all treated groups): incoordination, vocalization, mydriasis, decreased or increased activity, increased respiration, gnawing cage wire, excessive licking of nose or lips and circling
NOAEL at 14 days [5]: 1.5 mg/kg

COc1ccc2[nH]cc(CCN(C)C)c2c1 [5MeODMT, 5-methoxy-N,N-dimethyltryptamine]
Chromosome-damaging potential (conclusion) [6]: no chromosome-damaging potential
Micronuclei or hypodiploid cells ([6]; all treatment regimens, absence or presence of S9): did not induce any increases in micronuclei or hypodiploid cells
Cytotoxicity or precipitation ([6]; up to the maximal dose level of 300 μg/mL): No cytotoxicity or precipitation
Cytotoxicity ([7]; E. coli strain, absence or presence of S9 mix): No cytotoxicity
Mutagenic potential (conclusion) ([7]; absence or presence of S9): no mutagenic potential
Cytotoxicity ([8]; 1600 μg/plate, all S. typhimurium strains): slight cytotoxicity
Repeat test, revertant colonies ([8]; TA1537 and TA98, absence of S9 mix, up to 2000 μg/plate): no increases in the revertant colonies number per plate
Mutagenic potential (conclusion) ([8]; absence or presence of S9): no mutagenic potential
